Assay results taken from publication PMC7057333 (ACS Omega, 2020).
Read-outs that look alike come from different tables or passages of the source. Bridge positions count the residues as written; N and C are the ends. Square brackets hold non-standard residues; d marks the D form. Peptide text beside a SMILES is read from it. Cit = NC(=O)NCCC[C@H](N)C(=O)O

How the values were obtained:
[1] = target: T1, LSD1 (Homo sapiens, UniProt O60341); assay: HRP-coupled fluorescence LSD1 demethylation activity and inhibition assay, substrate H3_1-21 K4(Me); assay type: biochemical; settings: for mode of inhibition / inhibition of LSD1 (in words): enzyme activity assay; for mode of inhibition: inhibition kinetics; for Km: Tris buffer pH 8.0
T1 construct: made in house; host or cells: Escherichia coli Rosetta 2 (pET15b)

[2] = target: T1, LSD1; assay: SPR biosensor interaction kinetic assay with immobilized LSD1 (15 °C, TBS-T with DTT); assay type: binding
[3] = 100 μM, supplement sheet SMILES and Activity, read-out: Inhibition at 100 μM (%)
[4] = read-out: % inhibition at 100 μM
[5] = supplement sheet SMILES and Activity, read-out: IC50

| Molecule | inhibition at 100 µM [1, 3] | inhibition at 100 µM [1, 4] | IC50 [1, 5] | also measured |
| --- | --- | --- | --- | --- |
| CSCC[C@@H]1NC(=O)[C@H](NC(=O)[C@H](CCCNC(=N)N)NC(=O)[C@H](C)N)CCC/C=C\CCC[C@@H](C(=O)N[C@@H](C)C(=O)N[C@@H](CCCNC(=N)N)C(=O)N[C@@H](CCCCN)C(=O)N[C@@H](CO)C(=O)N[C@H](C(N)=O)[C@@H](C)O)NC(=O)[C@H](CCC(N)=O)NC1=O (relative stereo) [Peptide 24, AR*G^penMQG^penARKST-NH2] | 95% | 95% |  | mode of inhibition [1]: competitive inhibitor |
| CSCC[C@@H]1NC(=O)[C@H](NC(=O)[C@H](CCCNC(=N)N)NC(=O)[C@H](C)N)CCC/C=C\CCC[C@H](C(=O)N[C@@H](C)C(=O)N[C@@H](CCCNC(=N)N)C(=O)N[C@@H](CCCCN)C(=O)N[C@@H](CO)C(=O)N[C@H](C(N)=O)[C@@H](C)O)NC(=O)[C@H](CCC(N)=O)NC1=O (relative stereo) [Peptide 26, AR*G^penMQ*G^penARKST-NH2] | 100% | 90% |  |  |
| CSCC[C@@H]1NC(=O)[C@H](NC(=O)[C@H](CCCNC(=N)N)NC(=O)[C@H](C)N)CCCCNC(=O)CC[C@@H](C(=O)N[C@@H](C)C(=O)N[C@@H](CCCNC(=N)N)C(=O)N[C@@H](CCCCN)C(=O)N[C@@H](CO)C(=O)N[C@H](C(N)=O)[C@@H](C)O)NC(=O)[C@H](CCC(N)=O)NC1=O (relative stereo) [Peptide 31] | 100% | 100% | 5.3 µM | Ki [1]: 2.3 µM; mode of inhibition [1]: competitive inhibitor |
| CSCC[C@@H]1NC(=O)[C@H](NC(=O)[C@H](CCCNC(=N)N)NC(=O)[C@H](C)N)CCC(=O)NCCCC[C@@H](C(=O)N[C@@H](C)C(=O)N[C@@H](CCCNC(=N)N)C(=O)N[C@@H](CCCCN)C(=O)N[C@@H](CO)C(=O)N[C@H](C(N)=O)[C@@H](C)O)NC(=O)[C@H](CCC(N)=O)NC1=O (relative stereo) [Peptide 32] |  | < 20% |  | Ki ([1]; read-out: Ki): > 100 µM |
| CSCC[C@H](NC(=O)[C@@H](NC(=O)[C@H](CCCNC(=N)N)NC(=O)[C@H](C)N)[C@@H](C)O)C(=O)N[C@@H](CCC(N)=O)C(=O)N[C@H](C(=O)N[C@@H](C)C(=O)N[C@@H](CCCNC(=N)N)C(=O)N[C@@H](CCCCN)C(=O)N[C@@H](CO)C(=O)N[C@H](C(=O)NCC(=O)NCC(=O)N[C@@H](CCCCN)C(=O)N[C@@H](C)C(=O)O)[C@@H](C)O)[C@@H](C)O [Peptide 2] |  |  |  | Kd [2]: 5 µM |
| CSCC[C@H](NC(=O)[C@@H](NC(=O)[C@H](CCCNC(=N)N)NC(=O)[C@H](C)N)[C@@H](C)O)C(=O)N[C@@H](CCC(N)=O)C(=O)N[C@H](C(=O)N[C@@H](C)C(=O)N[C@@H](CCCNC(=N)N)C(=O)N[C@@H](CCCCN)C(=O)O)[C@@H](C)O [Peptide 5] |  |  |  | Kd [2]: > 200 µM |
| C=CC[C@H](NC(=O)[C@H](CCCNC(=N)N)NC(=O)[C@@H](N)CC=C)C(=O)N[C@@H](CCSC)C(=O)N[C@@H](CCC(N)=O)C(=O)N[C@H](C(=O)N[C@@H](C)C(=O)N[C@@H](CCCNC(=N)N)C(=O)N[C@@H](CCCCN)C(=O)N[C@@H](CO)C(=O)N[C@H](C(N)=O)[C@@H](C)O)[C@@H](C)O [Peptide 18] | 98% | 98% |  | IC50 [1]: 5 µM |
| CSCC[C@H](NC(=O)[C@@H]1C/C=C\C[C@H](N)C(=O)N[C@@H](CCCNC(=N)N)C(=O)N1)C(=O)N[C@@H](CCC(N)=O)C(=O)N[C@H](C(=O)N[C@@H](C)C(=O)N[C@@H](CCCNC(=N)N)C(=O)N[C@@H](CCCCN)C(=O)N[C@@H](CO)C(=O)N[C@H](C(N)=O)[C@@H](C)O)[C@@H](C)O [Peptide 19] | 100% | 100% |  |  |
| C=CC[C@H](NC(=O)[C@H](CCC(N)=O)NC(=O)[C@H](CCSC)NC(=O)[C@H](CC=C)NC(=O)[C@H](CCCNC(=N)N)NC(=O)[C@H](C)N)C(=O)N[C@@H](C)C(=O)N[C@@H](CCCNC(=N)N)C(=O)N[C@@H](CCCCN)C(=O)N[C@@H](CO)C(=O)N[C@H](C(N)=O)[C@@H](C)O [Peptide 20, ARG^alyMQG^alyARKST-NH2] | 95% | 95% |  |  |
| C=CCCC[C@H](NC(=O)[C@H](CCC(N)=O)NC(=O)[C@H](CCSC)NC(=O)[C@H](CCCC=C)NC(=O)[C@H](CCCNC(=N)N)NC(=O)[C@H](C)N)C(=O)N[C@@H](C)C(=O)N[C@@H](CCCNC(=N)N)C(=O)N[C@@H](CCCCN)C(=O)N[C@@H](CO)C(=O)N[C@H](C(N)=O)[C@@H](C)O [Peptide 22, ARG^penMQG^penARKST-NH2] | 100% | 100% |  |  |
| CSCC[C@@H]1NC(=O)[C@@H](NC(=O)[C@H](CCCNC(=N)N)NC(=O)[C@H](C)N)CCC/C=C\CCC[C@@H](C(=O)N[C@@H](C)C(=O)N[C@@H](CCCNC(=N)N)C(=O)N[C@@H](CCCCN)C(=O)N[C@@H](CO)C(=O)N[C@H](C(N)=O)[C@@H](C)O)NC(=O)[C@H](CCC(N)=O)NC1=O [Peptide 23, ARG^penMQG^penARKST-NH2] | 75% | 75% |  |  |
| CSCC[C@@H]1NC(=O)[C@@H](NC(=O)[C@H](CCCNC(=N)N)NC(=O)[C@H](C)N)CCC/C=C\CCC[C@H](C(=O)N[C@@H](C)C(=O)N[C@@H](CCCNC(=N)N)C(=O)N[C@@H](CCCCN)C(=O)N[C@@H](CO)C(=O)N[C@H](C(N)=O)[C@@H](C)O)NC(=O)[C@H](CCC(N)=O)NC1=O [Peptide 25, ARG^penMQ*G^penARKST-NH2] | 95% | 95% |  |  |
| CSCC[C@@H]1NC(=O)[C@@H](NC(=O)[C@H](CCCNC(=N)N)NC(=O)[C@H](C)N)CCCCNC(=O)CC[C@@H](C(=O)N[C@@H](C)C(=O)N[C@@H](CCCNC(=N)N)C(=O)N[C@@H](CCCCN)C(=O)N[C@@H](CO)C(=O)N[C@H](C(N)=O)[C@@H](C)O)NC(=O)[C@H](CCC(N)=O)NC1=O [Peptide 27] | 65% | 65% | 62 µM | Ki ([1]; read-out: Ki): 31 µM |
| CSCC[C@@H]1NC(=O)[C@@H](NC(=O)[C@H](CCCNC(=N)N)NC(=O)[C@H](C)N)CCC(=O)NCCCC[C@@H](C(=O)N[C@@H](C)C(=O)N[C@@H](CCCNC(=N)N)C(=O)N[C@@H](CCCCN)C(=O)N[C@@H](CO)C(=O)N[C@H](C(N)=O)[C@@H](C)O)NC(=O)[C@H](CCC(N)=O)NC1=O [Peptide 28] | 98% | 98% | 12 µM | Ki [1]: 4 µM; mode of inhibition [1]: competitive inhibitor |
| CSCC[C@@H]1NC(=O)[C@@H](NC(=O)[C@H](CCCNC(=N)N)NC(=O)[C@@H]2CCCN2)CCCCNC(=O)CC[C@@H](C(=O)N[C@@H](C)C(=O)N[C@@H](CCCNC(=N)N)C(=O)N[C@@H](CCCCN)C(=O)N[C@@H](CO)C(=O)N[C@H](C(N)=O)[C@@H](C)O)NC(=O)[C@H](CCC(N)=O)NC1=O [Peptide 29] (H-PRKMQEARKST-NH2; lactam 3-6) | 90% | 90% | 14 µM | Ki ([1]; read-out: Ki): 7 µM |
| CSCC[C@@H]1NC(=O)[C@@H](NC(=O)[C@H](CCCNC(=N)N)NC(=O)[C@@H]2CCCN2)CCC(=O)NCCCC[C@@H](C(=O)N[C@@H](C)C(=O)N[C@@H](CCCNC(=N)N)C(=O)N[C@@H](CCCCN)C(=O)N[C@@H](CO)C(=O)N[C@H](C(N)=O)[C@@H](C)O)NC(=O)[C@H](CCC(N)=O)NC1=O [Peptide 30] (H-PREMQKARKST-NH2; lactam 3-6) | 75% | 75% | 44 µM | Ki ([1]; read-out: Ki): 22 µM |
| CSCC[C@@H]1NC(=O)[C@@H](NC(=O)[C@H](CCCNC(N)=O)NC(=O)[C@H](C)N)CCC(=O)NCCCC[C@@H](C(=O)N[C@@H](C)C(=O)N[C@@H](CCCNC(=N)N)C(=O)N[C@@H](CCCCN)C(=O)N[C@@H](CO)C(=O)N[C@H](C(N)=O)[C@@H](C)O)NC(=O)[C@H](CCC(N)=O)NC1=O [Peptide 33] (H-A[Cit]EMQKARKST-NH2; lactam 3-6) | 97% | 97% | 13 µM |  |
| CSCC[C@@H]1NC(=O)[C@@H](NC(=O)[C@H](CCCNC(=N)N)NC(=O)[C@H](C)N)CCC(=O)NCCCC[C@@H](C(=O)N[C@@H](C)C(=O)N[C@@H](CCCNC(N)=O)C(=O)N[C@@H](CCCCN)C(=O)N[C@@H](CO)C(=O)N[C@H](C(N)=O)[C@@H](C)O)NC(=O)[C@H](CCC(N)=O)NC1=O [Peptide 34] (H-AREMQKA[Cit]KST-NH2; lactam 3-6) | 97% | 97% | 14 µM | Ki [1]: 8 µM |
| CSCC[C@@H]1NC(=O)[C@@H](NC(=O)[C@H](CCCNC(=N)N)NC(=O)[C@H](C)N)CCCCn2cc(nn2)C[C@@H](C(=O)N[C@@H](C)C(=O)N[C@@H](CCCNC(=N)N)C(=O)N[C@@H](CCCCN)C(=O)N[C@@H](CO)C(=O)N[C@H](C(N)=O)[C@@H](C)O)NC(=O)[C@H](CCC(N)=O)NC1=O [Peptide 35, ARK^azdMQG^prgARKST-NH2] |  | < 30% |  | inhibition of LSD1 (in words) [1]: weak competitive inhibitors; Ki ([1]; read-out: Ki): > 100 µM |
| CSCC[C@@H]1NC(=O)[C@@H](NC(=O)[C@H](CCCNC(=N)N)NC(=O)[C@H](C)N)Cc2cn(nn2)CCCC[C@@H](C(=O)N[C@@H](C)C(=O)N[C@@H](CCCNC(=N)N)C(=O)N[C@@H](CCCCN)C(=O)N[C@@H](CO)C(=O)N[C@H](C(N)=O)[C@@H](C)O)NC(=O)[C@H](CCC(N)=O)NC1=O [Peptide 36, ARG^prgMQK^azdARKST-NH2] | 70% | 70% | 60 µM | inhibition of LSD1 (in words) [1]: weak competitive inhibitors; Ki ([1]; read-out: Ki): 30 µM |
| H3_1-21 K4(Me): N-terminal 21 amino acids of histone H3, mono-N-methylated at Lys4; LSD1 substrate [reference compound] |  |  |  | kcat ([1]; substrate of LSD1, 50 mM NaCl): 0.6 s^–1; Km ([1]; substrate of LSD1, 50 mM NaCl): 20 µM; Km ([1]; substrate of LSD1, 150 mM NaCl): 80 µM; Km ([1]; substrate of LSD1, without added NaCl): 10 µM |
